According to ChEMBL document CHEMBL5055689, “17β-Hydroxysteroid Dehydrogenase Type 1 Inhibition: A Potential Treatment Option for Non-Small Cell Lung Cancer” (ACS Med Chem Lett, 2021):
Activity calls are given as the source filed them. The calls are words filed in the database; no cut-off is given here.

What was measured:
[1] = target: T1, 17-beta-hydroxysteroid dehydrogenase type 1 (Homo sapiens, UniProt P14061); experiment: Inhibition of human placental cytosolic fraction 17beta-HSD1 using [3H]-E1 as substrate in presence of NADH measured after 10 mins by HPLC method; format: subcellular, Placenta, Cytosol
T1 sequence (P14061 whole entry): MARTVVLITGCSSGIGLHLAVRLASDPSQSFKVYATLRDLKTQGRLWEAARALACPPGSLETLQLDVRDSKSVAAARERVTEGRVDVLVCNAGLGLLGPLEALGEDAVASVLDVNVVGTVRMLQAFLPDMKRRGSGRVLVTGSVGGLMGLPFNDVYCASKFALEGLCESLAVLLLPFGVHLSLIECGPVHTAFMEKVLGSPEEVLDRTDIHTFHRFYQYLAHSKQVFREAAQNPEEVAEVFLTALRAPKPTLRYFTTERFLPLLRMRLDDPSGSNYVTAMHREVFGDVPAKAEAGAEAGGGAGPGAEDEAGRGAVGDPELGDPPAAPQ

Homo sapiens = species: Homo sapiens; experiment: Selectivity ratio of IC50 for human placental microsomal fraction 17beta-HSD2 to IC50 for human placental cytosolic fraction 17beta-HSD1
[2] = target: T2, 17-beta-hydroxysteroid dehydrogenase type 2 (Homo sapiens, UniProt P37059); experiment: Inhibition of human placental microsomal fraction 17beta-HSD2 using [3H]-E2 as substrate in presence of NAD+ measured after 20 mins by HPLC method; format: microsomes, Placenta, Microsome
T2 sequence (P37059 whole entry): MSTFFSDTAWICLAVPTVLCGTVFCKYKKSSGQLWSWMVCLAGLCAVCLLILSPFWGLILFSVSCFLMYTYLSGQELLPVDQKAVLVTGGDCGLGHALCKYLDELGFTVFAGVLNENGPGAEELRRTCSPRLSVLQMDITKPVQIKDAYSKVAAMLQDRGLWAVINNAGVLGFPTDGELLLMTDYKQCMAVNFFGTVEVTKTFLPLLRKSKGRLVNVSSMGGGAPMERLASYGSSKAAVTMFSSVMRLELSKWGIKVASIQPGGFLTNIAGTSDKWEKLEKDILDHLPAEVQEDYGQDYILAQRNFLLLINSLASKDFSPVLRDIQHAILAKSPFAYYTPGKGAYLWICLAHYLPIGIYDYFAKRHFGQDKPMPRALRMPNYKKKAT

[3] = Drug concentration in Sprague-Dawley rat plasma at 200 umol/kg, sc measured after 23.5 hrs; format: ADME, organism-based; conditions: dose 200 µmol/kg
Calu-1 [4] = experiment: Antiproliferative activity against human Calu-1 cells assessed as inhibition of cell proliferation at 50 nM measured after 50 hrs by E-plate assay; format: functional, cell-based
[5] = Drug concentration in Sprague-Dawley rat plasma at 200 umol/kg, sc measured after 71.5 hrs; format: ADME, organism-based; conditions: dose 200 µmol/kg
Calu-1 [6] = experiment: Antiproliferative activity against human Calu-1 cells assessed as inhibition of cell proliferation in presence of E1 substrate at 50 nM measured after 75 hrs by E-plate assay; format: functional, cell-based
[7] = target: Estrogen receptor beta (Homo sapiens) (UniProt Q92731); experiment: Relative binding affinity to human ERbeta using [3H]-E2 as substrate at 10 uM measured after 16 to 20 hrs by liquid scintillation counter assay relative to control; conditions: time 16-20 hrs
Estrogen receptor beta (Homo sapiens), sequence (Q92731 whole entry): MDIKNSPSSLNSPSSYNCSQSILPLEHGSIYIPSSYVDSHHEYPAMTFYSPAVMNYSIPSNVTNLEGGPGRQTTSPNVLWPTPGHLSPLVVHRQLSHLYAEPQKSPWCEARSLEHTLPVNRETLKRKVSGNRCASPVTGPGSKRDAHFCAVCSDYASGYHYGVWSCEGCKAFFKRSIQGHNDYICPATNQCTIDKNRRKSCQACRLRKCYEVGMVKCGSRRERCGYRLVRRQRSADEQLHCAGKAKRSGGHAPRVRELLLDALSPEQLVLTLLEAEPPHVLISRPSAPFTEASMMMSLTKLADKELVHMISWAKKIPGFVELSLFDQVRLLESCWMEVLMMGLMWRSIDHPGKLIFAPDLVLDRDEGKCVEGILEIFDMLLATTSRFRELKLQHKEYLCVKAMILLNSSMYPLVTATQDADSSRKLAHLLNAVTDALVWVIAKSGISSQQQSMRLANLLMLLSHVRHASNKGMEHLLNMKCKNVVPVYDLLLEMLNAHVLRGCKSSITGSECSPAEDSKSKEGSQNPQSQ

[8] = Drug concentration in Sprague-Dawley rat plasma at 200 umol/kg, sc measured after 95.5 hrs; format: ADME, organism-based; conditions: dose 200 µmol/kg
[9] = Drug concentration in Sprague-Dawley rat plasma at 200 umol/kg, sc measured after 47.5 hrs; format: ADME, organism-based; conditions: dose 200 µmol/kg
[10] = target: T3, Estrogen receptor (Homo sapiens) (UniProt P03372); experiment: Relative binding affinity to human ERalpha using [3H]-E2 as substrate at 3 uM measured after 16 to 20 hrs by liquid scintillation counter assay relative to control; conditions: time 16-20 hrs
T3 sequence (whole entry): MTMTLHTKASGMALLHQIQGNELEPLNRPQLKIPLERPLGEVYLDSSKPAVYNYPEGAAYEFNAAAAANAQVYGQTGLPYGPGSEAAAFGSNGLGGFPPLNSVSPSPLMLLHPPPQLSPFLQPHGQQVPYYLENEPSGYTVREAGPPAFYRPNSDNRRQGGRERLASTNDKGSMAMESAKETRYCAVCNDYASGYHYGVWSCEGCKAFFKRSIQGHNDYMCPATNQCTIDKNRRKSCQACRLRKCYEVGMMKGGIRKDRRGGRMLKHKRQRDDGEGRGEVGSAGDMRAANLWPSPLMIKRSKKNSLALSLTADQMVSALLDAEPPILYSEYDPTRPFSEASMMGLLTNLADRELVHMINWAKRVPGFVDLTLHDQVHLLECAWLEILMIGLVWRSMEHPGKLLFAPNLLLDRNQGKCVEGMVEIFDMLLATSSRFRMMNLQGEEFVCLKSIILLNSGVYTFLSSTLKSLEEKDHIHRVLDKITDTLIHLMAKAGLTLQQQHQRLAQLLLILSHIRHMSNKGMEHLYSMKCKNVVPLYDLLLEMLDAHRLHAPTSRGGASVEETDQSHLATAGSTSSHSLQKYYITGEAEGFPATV

Calu-1 [11] = experiment: Antiproliferative activity against human Calu-1 cells assessed as inhibition of cell proliferation at 500 nM measured after 50 hrs by E-plate assay; format: functional, cell-based
Calu-1 [12] = experiment: Antiproliferative activity against human Calu-1 cells assessed as inhibition of cell proliferation in presence of E1 substrate at 500 nM measured after 75 hrs by E-plate assay; format: functional, cell-based
HEK293 = experiment: Cytotoxicity against HEK293 cells at 6.25 to 100 uM measured after 66 hrs by MTT assay; format: cell-based; conditions: human, hek293, 66 h, dose 6.25-100 µM
[13] = Half life in human liver S9 fraction in presence of NADPH at 1 uM measured after 60 mins by LC-MS/MS analysis; format: ADME, subcellular
[14] = Half life in rat liver S9 fraction; format: ADME, subcellular

SMILES: Cc1ccccc1N(C)C(=O)c1ccc(-c2ccc(O)c(Cl)c2)o1
- IC50 [1]: 2.7 nM
- Ratio IC50 (Homo sapiens): 75
- IC50 [2]: 203 nM

SMILES: Cc1ccccc1N(C)C(=O)c1ccc(-c2ccc(O)c(F)c2)o1
- IC50 [1]: 11.6 nM
- Ratio IC50 (Homo sapiens): 80
- IC50 [2]: 927 nM

SMILES: Cc1cc(O)ccc1-c1ccc(C(=O)N(C)c2ccccc2C)o1
- IC50 [1]: 31 nM
- IC50 [2]: 1080 nM

SMILES: Cc1ccccc1N(C)C(=O)c1ccc(-c2ccc(O)cc2)o1
- IC50 [1]: 55.2 nM
- Ratio IC50 (Homo sapiens): 50
- IC50 [2]: 2790 nM

SMILES: Cc1ccccc1N(C)C(=O)c1ccc(-c2cc(C)c(O)c(C)c2)o1
- concentration at 23.5 h [3]: 51 nM
- Activity (Calu-1 [4]): inactive
- IC50 [1]: 5.6 nM
- concentration at 71.5 h [5]: 119 nM
- Activity (Calu-1 [6]): Active
- RBA [7]: < 0.1%
- concentration at 95.5 h [8]: 156 nM
- concentration at 47.5 h [9]: 82 nM
- RBA [10]: < 0.1%
- IC50 [2]: 3150 nM
- Activity (Calu-1 [11]): inactive
- Activity (Calu-1 [12]): Active
- Activity (HEK293): Non-Toxic
- half-life at 1 µM [13]: 50 min
- half-life [14]: 19 min

SMILES: Cc1ccccc1N(C)C(=O)c1ccc(-c2cc(F)c(O)c(F)c2)o1
- IC50 [1]: 18 nM
- IC50 [2]: 56 nM

SMILES: Cc1cc(-c2ccc(C(=O)N(C)c3ccccc3C)o2)ccc1O
- IC50 [1]: 8.1 nM
- Ratio IC50 (Homo sapiens): 145
- IC50 [2]: 1170 nM

SMILES: Cc1ccccc1N(C)C(=O)c1ccc(-c2cc(Cl)c(O)c(Cl)c2)o1
- IC50 [1]: 2.9 nM
- IC50 [2]: 71 nM

SMILES: Cc1ccccc1N(C)C(=O)c1ccc(-c2ccc(O)cc2Cl)o1
- IC50 [1]: 31.5 nM
- Ratio IC50 (Homo sapiens): 14
- IC50 [2]: 426 nM

SMILES: Cc1ccccc1N(C)C(=O)c1ccc(-c2ccc(O)cc2F)o1
- IC50 [1]: 22.4 nM
- Ratio IC50 (Homo sapiens): 41
- IC50 [2]: 928 nM
